Measurements: ChEMBL document CHEMBL1201862, “PubChem BioAssay data set” (2004)
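Interpolation was linear, between the two tested concentrations surrounding the appropriate level; five concentrations were tested over 48 hours in 96-well plates. At the GI50, growth is halved.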 The source made the active and inactive calls. No stated cut-off is given here; in the data, active = GI50 up to about 1.1 µM and inactive = higher.

What was measured:
Test in all cases: NCI tumour cell line growth inhibition, 48 h
MDA-MB-231 = test system: MDA-MB-231
786-0 = test system: 786-0
SNB-75 = test system: SNB-75
HCT-15 = test system: HCT-15
MCF7 = test system: MCF7
IGROV-1 = test system: IGROV-1
CAKI-1 = test system: CAKI-1
KM12 = test system: KM12
SK-MEL-5 = test system: SK-MEL-5
CCRF-CEM = test system: CCRF-CEM
NCI/ADR-RES = test system: NCI/ADR-RES
HOP-62 = test system: HOP-62
MDA-N = test system: MDA-N
OVCAR-3 = test system: OVCAR-3
A498 = test system: A498
HCC 2998 = test system: HCC 2998
PC-3 = test system: PC-3
M14 = test system: M14
HOP-92 = test system: HOP-92

| Structure (SMILES) | GI50 (MDA-MB-231) | GI50 (786-0) | GI50 (SNB-75) | GI50 (HCT-15) | GI50 (MCF7) | GI50 (IGROV-1) | GI50 (CAKI-1) | GI50 (KM12) | GI50 (SK-MEL-5) | GI50 (CCRF-CEM) | GI50 (NCI/ADR-RES) | GI50 (HOP-62) | GI50 (MDA-N) | GI50 (OVCAR-3) | GI50 (A498) | GI50 (HCC 2998) | GI50 (PC-3) | GI50 (M14) | GI50 (HOP-92) |
| --- | --- | --- | --- | --- | --- | --- | --- | --- | --- | --- | --- | --- | --- | --- | --- | --- | --- | --- | --- |
| O=c1c2nn[nH]c2nc2n1CC(c1ccccc1)S2 (configuration not stated) | > 100 µM (inactive) | > 100 µM (inactive) | 72.1 µM (inactive) | > 100 µM | > 100 µM (inactive) | > 100 µM (inactive) | 13 µM (inactive) | > 100 µM (inactive) | > 100 µM (inactive) | > 100 µM (inactive) | > 100 µM (inactive) | > 100 µM (inactive) | > 100 µM (inactive) | > 100 µM (inactive) | > 100 µM (inactive) | > 100 µM (inactive) | – | – | – |
| COC(=O)c1c(O)ccc2c1c1c(n2Cc2ccc(Cl)cc2Cl)C(=O)c2ccccc2C1 | 69.7 µM (inactive) | 74.5 µM (inactive) | 20 µM (inactive) | 42.7 µM | 26.8 µM (inactive) | 50.8 µM (inactive) | – | 22 µM (inactive) | 89.5 µM (inactive) | 23.2 µM (inactive) | 34 µM (inactive) | > 100 µM (inactive) | 52.8 µM (inactive) | 49.2 µM (inactive) | > 100 µM (inactive) | – | 24.1 µM (inactive) | 89.1 µM (inactive) | – |
| COc1ccccc1/C=C1\SC(=S)N(/C=C2\C(=O)Oc3ccccc3C2=O)C1=O | 23 µM (inactive) | 34.8 µM (inactive) | 22 µM (inactive) | 28.1 µM | 35.5 µM (inactive) | 36.6 µM (inactive) | 0.458 µM (active) | 34.3 µM (inactive) | 20.5 µM (inactive) | 36.2 µM (inactive) | 29.3 µM (inactive) | – | 33.4 µM (inactive) | 19.8 µM (inactive) | – | – | 38.5 µM (inactive) | 36.2 µM (inactive) | 18.4 µM (inactive) |
| C[n+]1cn(C2=C([N-]S(=O)(=O)c3ccccc3)C(=O)c3ccccc3C2=O)c2ccccc21 | 20.1 µM (inactive) | 48.4 µM (inactive) | 24.3 µM (inactive) | > 100 µM | 22.1 µM (inactive) | 17.3 µM (inactive) | > 100 µM (inactive) | 15.9 µM (inactive) | 6.08 µM (inactive) | 39.6 µM (inactive) | > 100 µM (inactive) | 47.9 µM (inactive) | 12.8 µM (inactive) | 3.06 µM (inactive) | – | 18.9 µM (inactive) | 27.9 µM (inactive) | 16.5 µM (inactive) | 42.1 µM (inactive) |
| CC(C)(SCc1ccccc1)C(N)C(=O)O (configuration not stated) | > 100 µM (inactive) | > 100 µM (inactive) | > 100 µM (inactive) | > 100 µM | – | > 100 µM (inactive) | > 100 µM (inactive) | > 100 µM (inactive) | > 100 µM (inactive) | > 100 µM (inactive) | > 100 µM (inactive) | > 100 µM (inactive) | > 100 µM (inactive) | > 100 µM (inactive) | > 100 µM (inactive) | – | > 100 µM (inactive) | > 100 µM (inactive) | > 100 µM (inactive) |
| CC(=O)OC1CCC2C3CCc4c(C)ccc(OS(=O)(=O)c5ccccc5)c4C3CCC12C (configuration not stated) | 19.3 µM (inactive) | 6.76 µM (inactive) | – | 7.73 µM | 16.2 µM (inactive) | 38.7 µM (inactive) | 24 µM (inactive) | – | 3.74 µM (inactive) | 19.1 µM (inactive) | – | 26.4 µM (inactive) | > 100 µM (inactive) | 7.33 µM (inactive) | 32.5 µM (inactive) | 64.9 µM (inactive) | 5.57 µM (inactive) | – | 6.55 µM (inactive) |
| Nc1nccc(-c2c[nH]c3cc(Br)ccc23)n1 [MERIDIANIN D] | 33.2 µM (inactive) | 21.5 µM (inactive) | 20.5 µM (inactive) | 25.1 µM | 19.9 µM (inactive) | 23.7 µM (inactive) | 12.6 µM (inactive) | 24.2 µM (inactive) | 18.9 µM (inactive) | 41.1 µM (inactive) | 30.8 µM (inactive) | 30 µM (inactive) | 21 µM (inactive) | 28.8 µM (inactive) | – | 25.1 µM (inactive) | 30.1 µM (inactive) | 24.5 µM (inactive) | 23.7 µM (inactive) |
| CC1(C)OC(C(C)(C)O)C(C(C)(C)O)O1 (configuration not stated) | > 100 µM (inactive) | > 100 µM (inactive) | > 100 µM (inactive) | > 100 µM | > 100 µM (inactive) | > 100 µM (inactive) | > 100 µM (inactive) | > 100 µM (inactive) | > 100 µM (inactive) | > 100 µM (inactive) | > 100 µM (inactive) | > 100 µM (inactive) | > 100 µM (inactive) | – | – | > 100 µM (inactive) | > 100 µM (inactive) | > 100 µM (inactive) | – |
| CCOC(=O)C(NC(=O)CC(C)C)(Nc1ccc(S(=O)(=O)Nc2nc(C)cc(C)n2)cc1)C(F)(F)F (configuration not stated) | > 100 µM (inactive) | > 100 µM (inactive) | 89.9 µM (inactive) | > 100 µM | – | > 100 µM (inactive) | > 100 µM (inactive) | > 100 µM (inactive) | > 100 µM (inactive) | > 100 µM (inactive) | > 100 µM (inactive) | > 100 µM (inactive) | > 100 µM (inactive) | > 100 µM (inactive) | > 100 µM (inactive) | 7.87 µM (inactive) | > 100 µM (inactive) | > 100 µM (inactive) | > 100 µM (inactive) |
| COc1ccc(C(=O)N2CCN(c3ccc4c(c3)OCC(=O)N4)CC2)cc1 | > 100 µM (inactive) | > 100 µM (inactive) | > 100 µM (inactive) | > 100 µM | > 100 µM (inactive) | > 100 µM (inactive) | > 100 µM (inactive) | > 100 µM (inactive) | > 100 µM (inactive) | > 100 µM (inactive) | > 100 µM (inactive) | > 100 µM (inactive) | > 100 µM (inactive) | > 100 µM (inactive) | – | > 100 µM (inactive) | > 100 µM (inactive) | > 100 µM (inactive) | > 100 µM (inactive) |
| C/C(=C1/N=C(c2ccccc2)OC1=O)c1ccc(C)cc1 | > 100 µM (inactive) | > 100 µM (inactive) | – | > 100 µM | > 100 µM (inactive) | > 100 µM (inactive) | > 100 µM (inactive) | > 100 µM (inactive) | > 100 µM (inactive) | > 100 µM (inactive) | – | > 100 µM (inactive) | > 100 µM (inactive) | > 100 µM (inactive) | > 100 µM (inactive) | > 100 µM (inactive) | > 100 µM (inactive) | > 100 µM (inactive) | > 100 µM (inactive) |
| N#C/C(=C\c1ccc(Cl)cc1)c1nc(-c2cc3ccccc3oc2=O)cs1 | 22 µM (inactive) | 30.3 µM (inactive) | 26.9 µM (inactive) | > 100 µM | > 100 µM (inactive) | > 100 µM (inactive) | > 100 µM (inactive) | 74.1 µM (inactive) | 90.4 µM (inactive) | > 100 µM (inactive) | 39.6 µM (inactive) | 24.8 µM (inactive) | 59.8 µM (inactive) | – | – | 57.5 µM (inactive) | > 100 µM (inactive) | 51.5 µM (inactive) | 15.7 µM (inactive) |
